For 17 compounds, IC50 results are on record in patent publication US20250215029A1 (Recludix Pharma, Inc., priority 2022, published 2025).

As a reminder, the IC50 is the concentration at which inhibition is half-maximal.

The target in experiment [1] is T1, Recombinant STAT3 protein (STAT3 (G127-I722)) (Homo sapiens, UniProt P40763).
T1 construct: Recombinant STAT3 protein (STAT3 (G127-I722))
Kind of experiment: STAT3 Fluorescence Polarization (FP) Assay. In kind it is binding. The note with it: probe 5-FAM-GpYLPQTV-NH2 2 nM, 45-minute incubation. The gist of the method: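 Compounds in serial dilution receive a premix of STAT3 (G127-I722, 25 nM) and fluorescent phosphotyrosine peptide 5-FAM-GpYLPQTV-NH2 (2 nM) at pH 7.4. After 45 min at room temperature, FP is measured and IC50 derived by nonlinear regression.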
On the technique in general: Fluorescence polarisation rises when a labelled molecule tumbles more slowly, as on binding a larger partner.

The target in experiment [2] is T2, Recombinant STAT6 protein (STAT6 (W123-T658)) (Homo sapiens, UniProt P42226).
T2 construct: Recombinant STAT6 protein (STAT6 (W123-T658))
T2 sequence (P42226 123-658): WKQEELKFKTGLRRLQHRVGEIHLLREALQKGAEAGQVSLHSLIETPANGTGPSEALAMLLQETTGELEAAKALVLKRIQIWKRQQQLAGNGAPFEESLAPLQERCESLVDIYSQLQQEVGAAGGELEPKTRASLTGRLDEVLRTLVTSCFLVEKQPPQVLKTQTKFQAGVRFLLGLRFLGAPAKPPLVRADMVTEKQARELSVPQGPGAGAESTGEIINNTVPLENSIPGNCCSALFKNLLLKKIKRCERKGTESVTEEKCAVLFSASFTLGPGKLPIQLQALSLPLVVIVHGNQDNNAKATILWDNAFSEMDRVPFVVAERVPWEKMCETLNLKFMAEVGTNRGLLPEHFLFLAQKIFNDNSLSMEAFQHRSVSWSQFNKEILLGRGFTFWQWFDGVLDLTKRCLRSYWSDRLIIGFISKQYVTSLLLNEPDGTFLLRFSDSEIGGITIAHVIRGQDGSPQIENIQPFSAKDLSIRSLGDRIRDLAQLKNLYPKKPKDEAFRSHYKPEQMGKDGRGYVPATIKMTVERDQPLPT
Kind of experiment: STAT6 Fluorescence Polarization (FP) Assay. Type of experiment: binding. The note with it: 45-minute incubation. The gist of the method:
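Recombinant STAT6 (W123-T658) at 250 nM mixed with 2 nM 5-FAM phosphotyrosine peptide probe in HEPES pH 7.4 buffer with DTT, 1% DMSO final, added to serially diluted compounds. FP (mP) read after 45 min at room temperature; IC50 by nonlinear regression vs log concentration.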

Where [3] appears, read: STAT3 25 nM, read-out: STAT3 (FP assay IC50).
The mark [4] stands for this setting: STAT6 250 nM, probe 5-FAM-Ap[…]-NH2 2 nM, read-out: STAT6 (FP assay IC50).
Setting [5] is: STAT3 (G127-I722) 25 nM, read-out: STAT3 (FP assay IC50 class).
Where [6] appears, read: STAT6 (W123-T658) 250 nM, probe 5-FAM-Ap[…]-NH2 2 nM, read-out: STAT6 (FP assay IC50 class).

SMILES strings stand for the structures. Like-named read-outs stand apart in the source and are kept apart here. Some results are limits rather than exact numbers.

T1 sequence (P40763 127-722): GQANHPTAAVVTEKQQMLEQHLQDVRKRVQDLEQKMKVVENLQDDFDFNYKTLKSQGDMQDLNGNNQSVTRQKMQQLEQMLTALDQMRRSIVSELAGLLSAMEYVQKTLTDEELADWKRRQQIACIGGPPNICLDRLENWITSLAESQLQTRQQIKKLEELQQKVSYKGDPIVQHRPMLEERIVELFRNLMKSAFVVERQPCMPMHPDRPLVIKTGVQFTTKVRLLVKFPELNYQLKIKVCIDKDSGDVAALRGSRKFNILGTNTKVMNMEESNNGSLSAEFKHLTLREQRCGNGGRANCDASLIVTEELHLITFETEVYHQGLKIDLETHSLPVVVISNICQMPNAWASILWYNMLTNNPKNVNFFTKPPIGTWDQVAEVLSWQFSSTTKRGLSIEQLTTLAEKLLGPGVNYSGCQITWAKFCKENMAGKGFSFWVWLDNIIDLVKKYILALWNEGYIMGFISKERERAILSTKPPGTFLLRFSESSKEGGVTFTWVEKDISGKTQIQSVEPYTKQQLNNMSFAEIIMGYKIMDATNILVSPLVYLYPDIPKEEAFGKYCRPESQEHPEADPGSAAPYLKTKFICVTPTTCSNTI

Take `Cc1cnn(C2CN(C(=O)[C@@H]3CC[C@@H]4CCCC[C@H](NC(=O)c5cc6cc(C(F)(F)P(=O)(O)O)ccc6s5)C(=O)N43)C2)c1` [Compound 68, (difluoro(2-(((3S,6S,10aS)-3-(3-(4-methyl-1H-pyrazol-1-yl)azetidine-1-carbonyl)-5-oxodecahydropyrrolo [1,2-a]azocin-6-yl)carbamoyl)benzo[b]thiophen-5-yl)methyl) phosphonic acid]: the values for the IC50 in experiment [1] (setting [3]) and in experiment [2] (setting [4]) were 0.1 to 1 µM and 3 to 30 µM, respectively.
The corresponding values for `O=C(N[C@H]1CCCC[C@H]2CC[C@@H](C(=O)Nc3ccc4c(c3)CCCS4(=O)=O)N2C1=O)c1cc2cc(C(F)(F)P(=O)(O)O)ccc2s1` [Compound 58, ((2-(((3S,6S,10aS)-3-((1,1-dioxidothio-chroman-6-yl)carbamoyl)-5-oxodecahydropyrrolo [1,2-a]azocin-6-yl)carbamoyl)benzo[b]thiophen-5-yl)difluoro-methyl)phosphonic acid] are 0.1 to 1 µM and 0.3 to 3 µM.
Regarding `O=C(N[C@H]1CC[C@H](O)C[C@H]2CC[C@@H](C(=O)N3CC(C(=O)N4CCOCC4)C3)N2C1=O)c1cc2cc(C(F)(F)P(=O)(O)O)ccc2s1` [Compound 5, (difluoro(2-(((3S,6S,9S,10aR)-9-hydroxy-3-(3-(morpholine-4-carbonyl)azetidine-1-carbonyl)-5-oxodecahydropyrrolo [1,2-a]azocin-6-yl)carbamoyl)benzo[b]thiophen-5-yl)methyl)phosphonic acid], the IC50 in experiment [1] (setting [3]) was 0.1 to 1 µM; in experiment [2] (setting [4]), 3 to 30 µM.
`O=C(N[C@H]1CCC[C@H]2CC[C@@H](C(=O)N3CC(c4cnccc4F)C3)N2C1=O)c1cc2cc([C@H](F)P(=O)(O)O)ccc2s1` (single isomer, unassigned) [Compound 600]: the results for the IC50 in experiment [1] (setting [5]) and in experiment [2] (setting [6]) were below 0.1 µM and 0.3 to 3 µM, respectively.
For `COc1ccncc1C1CN(C(=O)[C@@H]2CC[C@@H]3CCC[C@H](NC(=O)c4cc5cc([C@@H](F)P(=O)(O)O)ccc5s4)C(=O)N32)C1` (single isomer, unassigned) [Compound 756], the IC50 is below 0.1 µM in experiment [1] (setting [5]) and 3 to 30 µM in experiment [2] (setting [6]).
On to `C[C@]1(NC(=O)c2cc3cc(C(F)(F)P(=O)(O)O)ccc3s2)CCCC[C@H]2CC[C@@H](C(=O)N3CC(c4ccccn4)C3)N2C1=O` [Compound 85, (difluoro(2-(((3S,6S,10aS)-6-methyl-5-oxo-3-(3-(pyridin-2-yl)azetidine-1-carbonyl)decahydropyrrolo [1,2-a]azocin-6-yl)carbamoyl)benzo[b]thiophen-5-yl)methyl) phosphonic acid], for which the concentration for half-maximal inhibition (IC50) in experiment [1] (setting [3]) is below 0.1 µM; in experiment [2] (setting [4]), 3 to 30 µM.
With `CN(C)c1ccncc1C1CN(C(=O)[C@@H]2CC[C@@H]3CCC[C@H](NC(=O)c4cc5cc([C@@H](F)P(=O)(O)O)ccc5s4)C(=O)N32)C1` (single isomer, unassigned) [Compound 631], the IC50 is below 0.1 µM in experiment [1] (setting [5]) and 3 to 30 µM in experiment [2] (setting [6]).
The corresponding values for `O=C(N[C@H]1CCCC[C@H]2CC[C@@H](C(=O)N3Cc4ccncc4C3)N2C1=O)c1cc2cc(C(F)(F)P(=O)(O)O)ccc2s1` [Compound 789, ((2-(((3S,6S,10aS)-3-(2,3-dihydro-1H-pyrrolo[3,4-c]pyridine-2-carbonyl)-5-oxodecahydropyrrolo [1,2-a]azocin-6-yl)carbamoyl)benzo [b]thiophen-5-yl)difluoromethyl) phosphonic acid] are 0.1 to 1 µM and 0.3 to 3 µM.
Turning to `N#C[C@@H]1CN(C(=O)[C@@H]2CC[C@@H]3CCCC[C@H](NC(=O)c4cc5cc([C@@H](F)P(=O)(O)O)ccc5s4)C(=O)N32)C[C@H]1c1ccccc1` (single isomer, unassigned) [Compound 19, ((2-(((3S,6S,10aS)-3-((3S,4R or 3R,4S))-3-cyano-4-phenylpyrrolidine-1-carbonyl)-5-oxodecahydropyrrolo [1,2-a]azocin-6-yl)carbamoyl)benzo[b]thiophen-5-yl)fluoromethyl) phosphonic acid], the IC50 was 1 to 10 µM in experiment [1] (setting [3]) and at most 0.3 µM in experiment [2] (setting [4]).
As to `N#C[C@@H]1[C@@H](c2cccnc2)CN(C(=O)[C@@H]2CC[C@@H]3CCCC[C@H](NC(=O)c4cc5cc([C@H](F)P(=O)(O)O)ccc5s4)C(=O)N32)C12CC2` (single isomer, unassigned) [Compound 840], the IC50 is 1 to 10 µM in experiment [1] (setting [5]) and at most 0.3 µM in experiment [2] (STAT6 (W123-T658) 250 nM, probe 5-FAM-ApYKPFQDLI-NH2 2 nM, read-out: STAT6 (FP assay IC50 class)).
In the case of `CC(C)C1(c2ccccc2)CN(C(=O)[C@@H]2CC[C@@H]3CCC[C@H](NC(=O)c4cc5cc(C(F)(F)P(=O)(O)O)ccc5s4)C(=O)N32)C1` [Compound 784, (difluoro(2-(((3S,6S,9aS)-3-(3-isopropyl-3-phenylazetidine-1-carbonyl)-5-oxooctahydro-1H-pyrrolo[1,2-a]azepin-6-yl)carbamoyl)benzo [b]thiophen-5-yl)methyl) phosphonic acid], the values for the half-inhibitory concentration (IC50) in experiment [1] (setting [5]) and in experiment [2] (setting [6]) were 0.1 to 1 µM and 3 to 30 µM, respectively.
Consider `CS(=N)(=O)CC1CN(C(=O)[C@@H]2CC[C@@H]3CCC[C@H](NC(=O)c4cc5cc(C(F)(F)P(=O)(O)O)ccc5s4)C(=O)N32)C1` (stereo partly drawn) [Compound 32, (difluoro(2-(((3S,6S,9aS)-3-(3-((S-methyl-sulfonimidoyl)methyl)azetidine-1-carbonyl)-5-oxooctahydro-1H-pyrrolo[1,2-a]azepin-6-yl)carbamoyl)benzo[b]thiophen-5-yl)methyl) phosphonic acid], for which the IC50 in experiment [1] (setting [3]) was below 0.1 µM; in experiment [2] (setting [4]), 3 to 30 µM.
For `O=C(N[C@H]1CCC[C@H]2CC[C@@H](C(=O)N3CCC(c4cccnc4)C3)N2C1=O)c1cc2cc(CP(=O)(O)O)ccc2s1` (stereo partly drawn) [Compound 508, ((2-(((3S,6S,9aS)-5-oxo-3-(3-(pyridin-3-yl)pyrrolidine-1-carbonyl)octahydro-1H-pyrrolo[1,2-a]azepin-6-yl)carbamoyl)benzo[b]thiophen-5-yl)methyl)phosphonic acid], the IC50 in experiment [1] (setting [5]) was 1 to 10 µM; in experiment [2] (setting [6]) it was 3 to 30 µM.
Turning to `Cn1cc(F)c(C2CN(C(=O)[C@@H]3CC[C@@H]4CCC[C@H](NC(=O)c5cc6cc(C(F)P(=O)(O)O)ccc6s5)C(=O)N43)C2)n1` (stereo partly drawn) [Compound 754, (fluoro(2-(((3S,6S,9aS)-3-(3-(4-fluoro-1-methyl-1H-pyrazol-3-yl)azetidine-1-carbonyl)-5-oxooctahydro-1H-pyrrolo[1,2-a]azepin-6-yl)carbamoyl)benzo [b]thiophen-5-yl)methyl) phosphonic acid], the results for the IC50 in experiment [1] (setting [5]) and in experiment [2] (setting [6]) were 1 to 10 µM and 3 to 30 µM, respectively.
For the compound `Cn1ncc(C2CCN(C(=O)[C@@H]3CC[C@@H]4CCCC[C@H](NC(=O)c5ccc6ccc(C(F)P(=O)(O)O)cc6c5)C(=O)N43)C2)cc1=O` (stereo partly drawn) [Compound 902, (fluoro(7-(((3S,6S,10aS)-3-(3-(1-methyl-6-oxo-1,6-dihydropyridazin-4-yl)pyrrolidine-1-carbonyl)-5-oxodecahydropyrrolo [1,2-a]azocin-6-yl)carbamoyl)naphthalen-2-yl)methyl) phosphonic acid], the IC50 was in the range of 1 to 10 µM in experiment [1] (setting [5]) and 3 to 30 µM in experiment [2] (setting [6]).
The corresponding values for `O=C(N[C@H]1CCCC[C@H]2CC[C@@H](C(=O)N3CC(c4cccnc4)C3)N2C1=O)c1cc2cc(CP(=O)(O)O)ccc2s1` [Compound 663, ((2-(((3S,6S,10aS)-5-oxo-3-(3-(pyridin-3-yl)azetidine-1-carbonyl)decahydropyrrolo[1,2-a]azocin-6-yl)carbamoyl)benzo [b]thiophen-5-yl)methyl) phosphonic acid] are 0.1 to 1 µM and 3 to 30 µM.
`CC(F)(c1ccc2sc(C(=O)N[C@H]3CCC[C@H]4CC[C@@H](C(=O)N5CC(c6cccnc6)C5)N4C3=O)cc2c1)P(=O)(O)O` (stereo partly drawn) [Compound 221, (1-fluoro-1-(2-(((3S,6S,9aS)-5-oxo-3-(3-(pyridin-3-yl)azetidine-1-carbonyl)octahydro-1H-pyrrolo[1,2-a]azepin-6-yl)carbamoyl)benzo[b]thiophen-5-yl)ethyl)phosphonic acid]: the IC50 is below 0.1 µM in experiment [1] (setting [5]) and 3 to 30 µM in experiment [2] (setting [6]).
